Laboratory results published in ChEMBL document CHEMBL1125108 (J Med Chem, 1990).

Assays:
Format in all cases: tissue-based
D(2) dopamine receptor = D(2) dopamine receptor (Rattus norvegicus, UniProt P61169); assay: Binding affinity for Dopamine receptor D2 using [3H]spiperone in rat brain
[1] = target: Muscarinic acetylcholine receptor; assay: Binding affinity was determined against Muscarinic acetylcholine receptor using [3H]QNB as radioligand in rat brain.
D(1A) dopamine receptor = D(1A) dopamine receptor (Rattus norvegicus, UniProt P18901); assay: Binding affinity against Dopamine receptor D1 using […] in rat brain
Chain of D(1A) dopamine receptor (P18901 whole entry): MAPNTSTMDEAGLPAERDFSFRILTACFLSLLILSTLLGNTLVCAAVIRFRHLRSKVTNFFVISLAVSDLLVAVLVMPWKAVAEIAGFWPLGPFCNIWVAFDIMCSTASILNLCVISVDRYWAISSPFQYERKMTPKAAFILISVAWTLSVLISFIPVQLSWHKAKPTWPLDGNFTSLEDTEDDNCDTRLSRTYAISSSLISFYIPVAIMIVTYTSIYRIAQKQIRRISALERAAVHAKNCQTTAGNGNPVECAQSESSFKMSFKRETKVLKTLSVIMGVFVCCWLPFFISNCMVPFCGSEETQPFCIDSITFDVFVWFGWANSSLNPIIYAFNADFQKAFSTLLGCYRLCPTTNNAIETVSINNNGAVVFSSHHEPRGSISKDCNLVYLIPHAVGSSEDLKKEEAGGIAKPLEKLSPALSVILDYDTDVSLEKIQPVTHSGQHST

Chain of D(2) dopamine receptor (P61169 whole entry): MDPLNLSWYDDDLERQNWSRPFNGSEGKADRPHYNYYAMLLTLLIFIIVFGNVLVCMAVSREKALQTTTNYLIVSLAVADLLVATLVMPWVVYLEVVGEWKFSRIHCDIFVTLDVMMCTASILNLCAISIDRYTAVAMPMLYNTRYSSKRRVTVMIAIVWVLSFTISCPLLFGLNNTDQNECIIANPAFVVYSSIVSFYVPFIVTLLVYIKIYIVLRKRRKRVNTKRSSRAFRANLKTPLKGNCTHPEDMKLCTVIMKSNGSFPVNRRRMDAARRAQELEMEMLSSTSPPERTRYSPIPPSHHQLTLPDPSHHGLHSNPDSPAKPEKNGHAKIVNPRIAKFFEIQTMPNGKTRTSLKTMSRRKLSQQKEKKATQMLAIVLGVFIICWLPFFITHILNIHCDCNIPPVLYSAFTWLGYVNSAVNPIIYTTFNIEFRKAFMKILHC

IC50 (D(2) dopamine receptor) [nM]	IC50 [1] [nM]	IC50 (D(1A) dopamine receptor) [nM]	Structure (SMILES)
> 10000	297	133	CC(C)=C1c2ccccc2C=C(N2CCN(C)CC2)c2cc(Cl)ccc21
305	150	21	C=C1c2ccccc2C=C(N2CCN(C)CC2)c2ccccc21
4750	415	540	CC(C)=C1c2ccccc2C=C(N2CCN(C)CC2)c2ccccc21

Continued, compound first:

Structure (SMILES)	IC50 (D(2) dopamine receptor) [nM]	IC50 [1] [nM]	IC50 (D(1A) dopamine receptor) [nM]
C=C1c2ccccc2C=C(N2CCN(C)CC2)c2cc(Cl)ccc21	27	330	8
CC(C)=C1c2ccc(Cl)cc2C=C(N2CCN(C)CC2)c2ccccc21	5000	1750	443
C=C1c2ccc(Cl)cc2C=C(N2CCN(C)CC2)c2ccccc21	300	248	51
CN1CCN(C2=Nc3ccccc3Nc3ccccc32)CC1	> 10000	–	–
